In US4792609A, “Indoline and 1,2,3,4-tetrahydroquinoline N(dicarboalkoxyvinyl) substituted derivatives” (Bayer Aktiengesellschaft, priority 1985, dated 1988):

Assays:
[1] = UV absorption (λmax, molar and specific extinction, intrinsic coloration); type: physicochemical; conditions: for E (molar extinction coefficient): Table 1, at λmax; for specific extinction: text on Table 2, compared with compounds of formula I, in words
[2] = solubility at RT in cosmetic oils; type: physicochemical; conditions: for solubility at RT, groundnut/paraffin oil = 1:9: groundnut/paraffin oil = 1:9, printed as symbol

Row | Compound | λmax ([1]; Table 1) [nm] | E (molar extinction coefficient) [1] [L/mol/cm] | specific extinction E^1 ([1]; Table 2) | λmax ([1]; Table 2) [nm] | solubility at RT, groundnut oil ([2]; printed as symbol) | solubility at RT, groundnut/paraffin oil = 1:9 [2] | specific extinction [1] | solubility at RT, groundnut oil [2] [%]
1 | CCOC(=O)C(=CN1CCc2ccccc21)C(=O)OCC [(1), N-(dicarboethoxyvinyl)indoline] | 330 | 32200 | 1114 | 330 | .infin. | .infin. | – | –
2 | CCOC(=O)C(C(=O)OCC)=C(C)N1CCc2ccccc21 [(3), N-(α-methyl-β,β-dicarboethoxyvinyl)indoline] | 338 | – | – | 338 | .infin. | .infin. | – | –
3 | CC(C)COC(=O)C(=CN1c2ccccc2CC1C)C(=O)OCC(C)C (stereo not drawn) [(4), N-(dicarbo-iso-butoxyvinyl)-2-methylindoline] | 331 | 26200 | 730 | 331 | .infin. | .infin. | – | –
4 | CCCCCCOC(=O)C(=CN1c2ccccc2CC1C)C(=O)OCCCCCC (stereo not drawn) [(5), N-(dicarbohexyloxyvinyl)-2-methylindoline] | 332 | 25300 | 582 | 332 | .infin. | .infin. | – | –
5 | CCOC(=O)C(=CN1CCCc2ccccc21)C(=O)OCC [(6), N-(dicarboethoxyvinyl)-1,2,3,4-tetrahydroquinoline] | 317 | 26700 | 878 | 317 | .infin. | .infin. | – | –
6 | COc1ccc(C(=O)c2cc(S(=O)(=O)O)c(OC)cc2O)c(O)c1 [Comparison example 1, sodium 2,2'-dihydroxy-4,4'-dimethoxybenzophenone-5-sulphonate, reference compound] | – | – | 160 | 330 | – | – | markedly lower specific extinction | –
7 | O=C(c1ccc(O)cc1O)c1ccc(O)cc1O [Comparison example 2, 2,2',4,4'-tetrahydroxybenzophenone, reference compound] | – | – | 645 | 351 | – | – | markedly lower specific extinction | 0.8
8 | COc1ccc(C(=O)CC(=O)c2ccc(OC)cc2)cc1 [Comparison example 3, dianisoylmethane, reference compound] | – | – | – | – | – | – | – | 1
9 | CCOC(=O)C(=CN1c2ccccc2CC1C)C(=O)OCC (stereo not drawn) [Compound (2), N-(dicarboethoxyvinyl)-2-methylindoline] | 330 | 30000 | 1008 | 330 | .infin. | .infin. | – | –
